The values below come from patent US6514997B2, “Antipicornaviral compounds and compositions, their pharmaceutical uses, and materials for their synthesis” (Agouron Pharmaceuticals, Inc., priority 1999, dated 2003).

Like-named read-outs stand apart in the source and are kept apart here.

For series [1], the target named is T1, Recombinant rhinovirus 3C protease, serotype 14 (Human rhinovirus 14, UniProt P03303).
T1 construct: Recombinant rhinovirus 3C proteases; made in house
Description: Inhibition of rhinovirus 3C protease (FRET assay, kobs/[I]), serotype 14. The class given is biochemical. As to conditions: pH 7.6, read-out: kobs/[I] (3C protease inhibition activity). In short, it runs like this:
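kobs/[I] values came from progress curves of reactions started by adding 50-100 nM protease to buffer (50 mM tris pH 7.6, 1 mM EDTA, 2% DMSO) containing compound and ~1 μM quenched DABCYL-EDANS substrate. Rising EDANS fluorescence reported cleavage.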

A further series has as its system HRV-14. Description: Antirhinoviral H1-HeLa cell culture assay (XTT cell protection, EC50), HRV-14. In kind it is cell-based, human rhinovirus (HRV) serotype-14 in H1-HeLa cells. As to conditions: Rhinovirus B, HRV14, H1-HeLa. In short, it runs like this:
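XTT dye reduction (450/650 nm) measured survival of H1-HeLa cells two days after HRV-14 infection at m.o.i. 0.13 in the presence of compound, giving EC50. The therapeutic index is CC50 divided by EC50.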
(Tetrazolium dyes change colour on reduction, which living cells bring about.)

Series [2] can be described thus: Cytotoxicity (CC50) in mock-infected H1-HeLa cells, XTT dye reduction. In kind it is cell-based, human. The settings on record: human; for CC50: line of CVB2. Summed up: (§1)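 XTT dye reduction (formazan, 450/650 nm) in H1-HeLa cells, mock-infected, gave CC50.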
The subject of the next series is H1-HeLa cells. The description is as above. The class given is cell-based, human. Summed up:
as §1

The subject of series [3] is Coxsackievirus type B3 (CVB3). Description: Anticoxsackieviral cell culture assay (XTT, EC50), CVB3. The class given is cell-based, coxsackievirus B3 in H1-HeLa cells. The method, then: Anticoxsackieviral Cell Culture Assay:
Coxsackievirus types A-21 (CAV-21) and B3 (CVB3) were purchased from American Type Culture Collection (ATCC, Rockville, Md.). Virus stocks were propagated and antiviral assays were performed in H1-HeLa cells (ATCC). Cells were grown in minimal essential medium with 10% fetal bovine serum (Life Technologies, Gaithersburg, Md.). The ability of the compounds of this invention to protect cells against either CAV-21 or CVB3 infection was measured by the XTT dye reduction method. This method is described in Weislow et al., J. Natl. Cancer Inst. (1989), vol. 81, 577-586. H1-HeLa cells were infected with CAV-21 or CVB3 at a multiplicity of infection (m.o.i.) of 0.025 or 0.075, respectively, or mock-infected with medium only. H1-HeLa cells were plated at 4×10^4 cells per well in a 96-well plate and incubated with appropriate concentrations of the test compound. One day (CVB3) or two days (CAV-21) later, XTT/PMS was added to test plates and the amount of formazan produced was quantified spectrophotometrically at 450/650 nm. […] The therapeutic index (TI) was calculated by dividing the CC50 by the EC50.

The next series concerns coxsackievirus B2 (CVB2). Description: Anticoxsackieviral cell culture assay (EC50), CVB2. The settings on record: Enterovirus B. In kind it is cell-based.
The next series deals with echovirus 9 (ECHO-9). Description: Anti-echoviral cell culture assay (EC50), ECHO-9. In kind it is cell-based. The settings on record: Enterovirus B.
[4] abbreviates: H1-HeLa cells, mock-infected, line of HRV-14.
[5] abbreviates: H1-HeLa cells, uninfected (mock-infected), line of CAV-21.
[6] abbreviates: H1-HeLa cells, uninfected (mock-infected).
The mark [7] stands for this setting: H1-HeLa cells, uninfected (mock-infected), line of CVB3.
Where [8] appears, read: H1-HeLa cells, mock-infected, HRV-14.
The mark [9] stands for this setting: mock-infected (uninfected) H1-HeLa cells, CAV-21.
[10] abbreviates: mock-infected (uninfected) H1-HeLa cells, CVB3.

Usually EC50 stands for the midpoint of the concentration-response curve. Read a low EC50 as a more potent agent. As a reminder, the CC50 is the concentration giving 50% cytotoxicity. Read a low CC50 as greater toxicity to the cells.

T1 sequence (P03303 1538-1719): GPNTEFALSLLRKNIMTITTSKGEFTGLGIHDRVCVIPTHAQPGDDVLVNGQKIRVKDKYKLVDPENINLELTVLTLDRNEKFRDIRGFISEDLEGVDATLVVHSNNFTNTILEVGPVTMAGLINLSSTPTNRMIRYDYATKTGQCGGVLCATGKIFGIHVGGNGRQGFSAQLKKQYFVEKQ

For `C#CC[C@@H](C(=O)N[C@H](/C=C/C(=O)OC1CCC1)C[C@@H]1CCNC1=O)n1cccc(NC(=O)c2cc(C)on2)c1=O` [Compound 53, trans-(2′S,3′″″S,4S)-4-[2′-(3″-{[1′″-(5″″-Methylisoxazol-3″″-yl)methanoyl]amino}-2′″-oxo-2′″H-pyridin-1′″-yl)pent-4″-ynoylamino]-5-(2′″″-oxopyrrolidin-3′″″-yl)pent-2-enoic Acid Cyclobutyl Ester], the kinact/KI in series [1] (HRV-14) amounted to 207000 M⁻¹ s⁻¹. Also, the EC50 with HRV-14 was found to be 0.04 µM; in series [3] it was 0.156 µM; with coxsackievirus B2 (CVB2), 0.154 µM; with echovirus 9 (ECHO-9), 0.026 µM. In addition, the CC50 at 2 days in series [2] (setting [4]) and in series [2] (setting [5]) was > 10 µM throughout. Also, the CC50 (in series [2] (setting [6]); with H1-HeLa cells (line of CVB5); with H1-HeLa cells (line of HRV-1A); in the series on H1-HeLa cells (line of HRV-2); with H1-HeLa cells (line of HRV-3); in the series on H1-HeLa cells (line of HRV-9)) was > 10 µM in each case. Besides, the half-maximal cytotoxic concentration (CC50) with H1-HeLa cells (line of HRV-10), with H1-HeLa cells (line of HRV-11), in the series on H1-HeLa cells (line of HRV-13), with H1-HeLa cells (line of HRV-16), with H1-HeLa cells (line of HRV-19) and in the series with H1-HeLa cells (line of HRV-23) was > 10 µM throughout. Besides, the CC50 in the series on H1-HeLa cells (line of HRV-25), in the series with H1-HeLa cells (line of HRV-39), in the series on H1-HeLa cells (line of HRV-78) and in the series on H1-HeLa cells (line of HRV-Hanks) was > 10 µM throughout. For the same molecule, the CC50 at 1 day in series [2] (setting [7]) was > 10 µM.
On to `CCOC(=O)/C=C/[C@H](C[C@@H]1CCNC1=O)NC(=O)[C@H](Cc1ccc(F)c(F)c1)n1cccc(NC(=O)c2cc(C)on2)c1=O` [Compound 33, trans-(2′S,3′″″S,4S)-4-(3′-(3″,4″-Difluorophenyl)-2′-{3′″-[(5″″-methylisoxazole-3″″-carbonyl)amino]-2′″-oxo-2′″H-pyridin-1′″-yl}propionylamino)-5-(2′″″-oxopyrrolidin-3′″″-yl)pent-2-enoic Acid Ethyl Ester], for which the kinact/KI in series [1] (HRV-14) came to 1.8e+06 M⁻¹ s⁻¹. Moreover, the EC50 in the series on HRV-14 is 0.001 µM; in series [3] it was 0.003 µM; in the series on coxsackievirus B2 (CVB2), 0.015 µM; in the series with echovirus 9 (ECHO-9), 0.003 µM. Also, the cytotoxic concentration (CC50) at 2 days in series [2] (setting [4]) and in series [2] (setting [5]) was > 10 µM in each case. The CC50 (in series [2] (setting [6]); in the series with H1-HeLa cells (line of CVB5); in the series on H1-HeLa cells (line of HRV-2); in the series on H1-HeLa cells (line of HRV-3); with H1-HeLa cells (line of HRV-9); with H1-HeLa cells (line of HRV-11)) was > 10 µM each time. Besides, the CC50 with H1-HeLa cells (line of HRV-13), with H1-HeLa cells (line of HRV-16), with H1-HeLa cells (line of HRV-19), in the series with H1-HeLa cells (line of HRV-23), with H1-HeLa cells (line of HRV-25) and in the series with H1-HeLa cells (line of HRV-39) was > 10 µM throughout. The CC50 in the series with H1-HeLa cells (line of HRV-78), in the series on H1-HeLa cells (line of HRV-87) and in the series with H1-HeLa cells (line of HRV-Hanks) was > 10 µM each time. Further, in series [2] (setting [7]), the CC50 at 1 day is > 10 µM.
Regarding `C#CC[C@@H](C(=O)N[C@H](/C=C/C(=O)OCc1ccccc1)C[C@@H]1CCNC1=O)n1cccc(NC(=O)c2cc(C)on2)c1=O` [Compound 63, trans-(2′S,3′″″S,4S)-4-[2′-(3″-{[1′″-(5″″-Methylisoxazol-3″″-yl)methanoyl]amino}-2′″-oxo-2′″H-pyridin-1′″-yl)pent-4″-ynoylamino]-5-(2′″″-oxopyrrolidin-3′″″-yl)pent-2-enoic Acid Benzyl Ester], the kinact/KI in series [1] (HRV-14 3C protease) was found to be 300000 M⁻¹ s⁻¹. Also, the EC50 was 0.051 µM with HRV-14 and 0.014 µM in series [3] (H1-HeLa). Also, the CC50 at 2 days in series [2] (setting [8]) and in series [2] (setting [9]) was > 10 µM each time. In addition, the 50% cytotoxic concentration (CC50) at 1 day in series [2] (setting [10]) was > 10 µM. Besides, the CC50 in the series on H1-HeLa cells (HRV-1A), in the series with H1-HeLa cells (HRV-2), in the series with H1-HeLa cells (HRV-3), in the series on H1-HeLa cells (HRV-9), in the series with H1-HeLa cells (HRV-10) and with H1-HeLa cells (HRV-11) was > 10 µM each time. Also, the CC50 in the series with H1-HeLa cells (HRV-13), with H1-HeLa cells (HRV-16), with H1-HeLa cells (HRV-19), in the series on H1-HeLa cells (HRV-23), in the series with H1-HeLa cells (HRV-25) and with H1-HeLa cells (HRV-39) was > 10 µM in each case. The CC50 with H1-HeLa cells (HRV-78) and with H1-HeLa cells (HRV-Hanks) was > 10 µM throughout.
In the case of `CC[C@@H](C(=O)N[C@H](/C=C/C(=O)OCc1ccccc1)C[C@@H]1CCNC1=O)n1cccc(NC(=O)c2cc(C)on2)c1=O` [Compound 62, trans-(2′S,3′″″S,4S)-4-[2′-(3″-{[1′″-(5″″-Methylisoxazol-3″″-yl)methanoyl]amino}-2′″oxo-2′″H-pyridin-1′″-yl)butanoylamino]-5-(2′″″-oxopyrrolidin-3′″″-yl)pent-2-enoic Acid Benzyl Ester], the kinact/KI in series [1] (HRV-14 3C protease) amounted to 210000 M⁻¹ s⁻¹. Besides, the results for the EC50 (in the series with HRV-14; in series [3] (H1-HeLa)) were 0.061 µM and 0.015 µM, respectively. Further, the CC50 at 2 days in series [2] (setting [8]) and in series [2] (setting [9]) was > 10 µM each time. Further, the CC50 at 1 day in series [2] (setting [10]) is > 10 µM. Moreover, the CC50 in the series with H1-HeLa cells (HRV-1A), in the series on H1-HeLa cells (HRV-2), with H1-HeLa cells (HRV-3), with H1-HeLa cells (HRV-9), with H1-HeLa cells (HRV-10) and in the series on H1-HeLa cells (HRV-11) was > 10 µM throughout. Besides, the CC50 in the series with H1-HeLa cells (HRV-13), in the series with H1-HeLa cells (HRV-16), in the series on H1-HeLa cells (HRV-19), in the series with H1-HeLa cells (HRV-23), with H1-HeLa cells (HRV-25) and with H1-HeLa cells (HRV-39) was > 10 µM each time. Moreover, the CC50 in the series on H1-HeLa cells (HRV-78) and with H1-HeLa cells (HRV-Hanks) was > 10 µM each time.
`Cc1cc(C(=O)Nc2cccn([C@@H](Cc3ccc(F)c(F)c3)C(=O)N[C@H](/C=C/C(=O)OC(C)C)C[C@@H]3CCNC3=O)c2=O)no1` [Compound 48, trans-(2′S,3″″″S,4S)-4-[3′-(3″,4″-Difluorophenyl)-2′-(3′″-{[1″″-(5′″″-methylisoxazol-3′″″-yl)methanoyl]amino}-2″″-oxo-2″″H-pyridin-1″″-yl)propanoylamino]-5-(2″″″-oxopyrrolidin-3″″″-yl)pent-2-enoic Acid Isopropyl Ester]: the EC50 with HRV-14 worked out at 0.003 µM; in series [3] it was 0.187 µM; with coxsackievirus B2 (CVB2) it was 0.162 µM; with echovirus 9 (ECHO-9) it was 0.057 µM. Further, the CC50 at 2 days in series [2] (setting [4]) and in series [2] (setting [5]) was > 10 µM each time. For the same molecule, the 50% cytotoxic concentration (CC50) (in series [2] (setting [6]); with H1-HeLa cells (line of CVB5); with H1-HeLa cells (line of HRV-1A); in the series with H1-HeLa cells (line of HRV-2); with H1-HeLa cells (line of HRV-3); in the series with H1-HeLa cells (line of HRV-9)) was > 10 µM throughout. For the same molecule, the cytotoxic concentration (CC50) with H1-HeLa cells (line of HRV-10), in the series with H1-HeLa cells (line of HRV-11), with H1-HeLa cells (line of HRV-13), in the series with H1-HeLa cells (line of HRV-16), with H1-HeLa cells (line of HRV-19) and in the series with H1-HeLa cells (line of HRV-23) was > 10 µM each time. The half-maximal cytotoxic concentration (CC50) in the series on H1-HeLa cells (line of HRV-25), in the series with H1-HeLa cells (line of HRV-39), with H1-HeLa cells (line of HRV-78) and with H1-HeLa cells (line of HRV-Hanks) was > 10 µM each time. Further, in series [2] (setting [7]), the CC50 at 1 day was > 10 µM.
